According to patent US7893108B2, “Antiviral methods and compositions” (priority 2004, dated 2011):
Entries after “also recorded” stand apart in the source; their conditions may differ. Read-outs that look alike come from different tables or passages of the source.

Columns and labels:
UL54 = UL54 (Human cytomegalovirus, UniProt P08546); test: basal DNA polymerase activity of UL54 alone (filter-based assay); assay type: biochemical; conditions: 0, 4, 20, 40, 100 μM; 20 min at 37° C.; read-out: IC50 for inhibition of the activity of UL54 alone
Chain of UL54 (P08546 whole entry): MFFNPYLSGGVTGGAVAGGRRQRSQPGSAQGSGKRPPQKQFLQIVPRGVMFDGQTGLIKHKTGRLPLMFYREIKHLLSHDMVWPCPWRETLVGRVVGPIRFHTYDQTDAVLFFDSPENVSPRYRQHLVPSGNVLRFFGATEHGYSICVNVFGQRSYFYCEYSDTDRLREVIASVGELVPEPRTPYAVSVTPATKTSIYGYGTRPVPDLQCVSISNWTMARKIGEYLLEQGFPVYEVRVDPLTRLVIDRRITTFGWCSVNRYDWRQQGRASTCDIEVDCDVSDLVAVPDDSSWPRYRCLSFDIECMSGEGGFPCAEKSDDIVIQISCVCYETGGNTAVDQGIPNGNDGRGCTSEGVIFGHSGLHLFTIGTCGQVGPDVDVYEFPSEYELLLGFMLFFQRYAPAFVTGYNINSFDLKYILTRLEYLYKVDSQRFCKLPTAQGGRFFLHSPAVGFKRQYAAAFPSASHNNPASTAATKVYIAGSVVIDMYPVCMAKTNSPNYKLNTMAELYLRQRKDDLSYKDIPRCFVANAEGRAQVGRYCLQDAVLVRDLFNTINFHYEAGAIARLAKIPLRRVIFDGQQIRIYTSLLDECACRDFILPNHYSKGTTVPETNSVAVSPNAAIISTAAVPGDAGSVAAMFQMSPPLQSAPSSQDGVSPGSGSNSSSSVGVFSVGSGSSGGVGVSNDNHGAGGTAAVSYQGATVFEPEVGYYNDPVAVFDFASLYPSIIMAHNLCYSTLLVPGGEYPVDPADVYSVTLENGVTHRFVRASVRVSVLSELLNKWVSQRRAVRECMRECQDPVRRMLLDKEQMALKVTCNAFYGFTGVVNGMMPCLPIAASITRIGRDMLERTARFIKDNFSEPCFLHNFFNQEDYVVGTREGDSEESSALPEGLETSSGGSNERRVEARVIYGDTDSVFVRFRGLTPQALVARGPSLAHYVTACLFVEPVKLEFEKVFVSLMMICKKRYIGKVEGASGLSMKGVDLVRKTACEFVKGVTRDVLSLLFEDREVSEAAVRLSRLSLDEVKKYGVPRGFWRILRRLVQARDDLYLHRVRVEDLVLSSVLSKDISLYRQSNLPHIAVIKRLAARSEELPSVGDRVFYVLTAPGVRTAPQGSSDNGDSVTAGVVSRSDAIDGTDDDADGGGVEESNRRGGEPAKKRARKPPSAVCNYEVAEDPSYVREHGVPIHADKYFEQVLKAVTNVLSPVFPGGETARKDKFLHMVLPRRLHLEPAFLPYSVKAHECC
Experimental: The basal DNA polymerase activity of UL54 in the absence or in the presence of various amounts of each compound was measured by a filter-based assay as previously described (Loregian et al., 2003), but using 5 μl of in vitro-transcribed and -translated UL54 as in Loregian et al. (Loregian et al., 2004a). The reaction was initiated by addition of a reaction mixture containing 75 mM Tris-HCl (pH 8.0), 6.5 mM MgCl2, bovine serum albumin (400 μg/ml), 1.67 mM β-mercaptoethanol, 150 mM KCl, 1.6 μM [^3H]dTTP, poly(dA)-oligo(dT) (10 μg/ml; Amersham Pharmacia Biotech), and 0, 4, 20, 40, 100 μM of each compound. Samples were taken after 20 min of incubation at 37° C. and spotted onto DE81 filters (Whatman), previously soaked in 0.1 M EDTA and air dried. The filters were washed three times in 5% Na2HPO4, two times in water, and two times in methanol and then were dried. Radioactivity was measured with a scintillation counter.

UL54 plus GST-UL44ΔC290 = target: T1, UL54 plus GST-UL44ΔC290 (Human cytomegalovirus, UniProt P16790); test: long-chain DNA synthesis by UL54 in the presence of UL44; assay type: biochemical, HCMV; conditions: for inhibition of long-chain DNA synthesis by UL54 and UL44: dose-response
T1 construct: GST-UL44ΔC290 fusion protein, which contains the N-terminal 290 residues of HCMV UL44; made in house; host or cells: UL54: in vitro transcription/translation; GST-UL44ΔC290: E. coli BL21 (DE3)pLysS
T1 sequence (P16790 1-290, stated change not applied): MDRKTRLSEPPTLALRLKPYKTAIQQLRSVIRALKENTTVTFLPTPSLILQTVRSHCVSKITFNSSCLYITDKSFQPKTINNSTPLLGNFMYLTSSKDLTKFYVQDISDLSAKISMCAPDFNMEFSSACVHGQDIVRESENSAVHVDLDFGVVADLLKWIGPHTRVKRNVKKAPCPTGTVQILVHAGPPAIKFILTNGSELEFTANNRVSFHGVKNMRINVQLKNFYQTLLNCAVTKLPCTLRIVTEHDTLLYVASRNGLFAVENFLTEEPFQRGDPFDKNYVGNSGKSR
Experimental: To analyze the ability of the compounds to interfere with functional UL54-UL44 interactions, we tested their ability to inhibit long-chain DNA synthesis by UL54 in the presence of UL44 employing a poly(dA)-oligo(dT)12-18 template-primer.
DNA polymerase assays. The effects of compounds were tested in an assay that measures long-chain DNA synthesis as described in Loregian et al. (Loregian et al., 2004a), with 5 μl of in vitro-transcribed and -translated UL54 plus 800 fmol of GST-UL44ΔC290 in the absence or in the presence of various amounts of each compound.
The effect of the compounds was also tested in an assay that measures long chain (Lc) DNA synthesis as described in Loregian et al., J. Virol. […]

HCMV AD169 = test: virus yield reduction assay; assay type: cell-based, human cytomegalovirus
Experimental: Next, we tested the effects of selected compounds and of GCV as a control in viral yield assays, which measure the titer of virus progeny produced following infection at relatively high multiplicity. In these assays, the viral titer was measured at two different times points post-infection (p.i.): at 96 hrs, when the release of virus progeny is increasing, and at 120 hrs, when the titer of virus progeny after a single cycle of replication reaches peak levels (Stinski, 1983).
(§1) For yield reduction assays, HFF cells were plated at 2×10^4 cells per well in 96-well cluster dishes, incubated overnight, and infected with HCMV AD169 at a multiplicity of infection (MOI) of 1. After virus adsorption for 2 hr at 37° C., cells were washed and incubated with 200 μl of fresh media containing test compounds at increasing drug concentration. Plates were incubated for 3 or 5 days at 37° C. and subjected to one cycle of freezing and thawing, and titers were determined by transferring 100-μl aliquots from each of the wells to a fresh 96-well monolayer culture of HFF cells followed by 1:5 serial dilution across the plate. Cultures were incubated for 7 days, cells were stained, and the numbers of plaques were determined as described above.
as §1, with “The effect of the compounds was assessed in an assay of virus yield. In this assay, cells are infected at a relatively high multiplicity of infection (about one per cell) and then drug is added. The virus produced at the different times post infection is measured. 120 hrs. is about the peak titer. This assay was conducted as follows.” for “For yield reduction assays,”, “20,000” for “2×10^4”, “an MOI” for “a multiplicity of infection (MOI)”, “0.1, 0.3, 1, 3, 10, 30 μM” for “increasing”

[1] = target: T2, full-length UL54 / UL44 interaction (Human cytomegalovirus, UniProt P16790); test: UL54-UL44 interaction ELISA; assay type: binding, HCMV; conditions: concentrations up to 200 μM
T2 construct: made in house; host or cells: baculovirus expression; proteins provided by H. S. Marsden (Institute of Virology, Glasgow)
T2 sequence (P16790 whole entry): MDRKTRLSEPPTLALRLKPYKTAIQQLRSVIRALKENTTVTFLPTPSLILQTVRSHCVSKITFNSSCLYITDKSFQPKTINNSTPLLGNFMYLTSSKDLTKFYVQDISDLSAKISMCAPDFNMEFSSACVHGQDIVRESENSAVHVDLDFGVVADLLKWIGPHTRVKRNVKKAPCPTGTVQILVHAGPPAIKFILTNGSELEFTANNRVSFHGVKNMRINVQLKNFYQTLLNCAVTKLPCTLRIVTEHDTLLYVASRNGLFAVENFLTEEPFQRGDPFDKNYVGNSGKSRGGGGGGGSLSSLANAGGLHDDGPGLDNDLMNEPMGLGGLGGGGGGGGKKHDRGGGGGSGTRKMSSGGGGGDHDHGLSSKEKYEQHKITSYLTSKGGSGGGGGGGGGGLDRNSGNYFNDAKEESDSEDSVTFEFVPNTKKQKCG
Experimental: In this assay, binding between purified baculovirus-expressed UL54 and UL44, which was tagged with an EEF epitope, was detected using an antibody that recognizes the epitope tag (Loregian et al., 2003).
UL54-UL44 interaction ELISA. This assay was conducted as described in (Loregian et al., 2003), testing various concentrations of each compound. After final washes, the chromogenic substrate 2,2′-azino-bis(3-ethylbenzothiazoline-6-sulphonic acid (ABTS, Pierce) in citrate phosphate buffer (pH 4.0) containing 0.01% hydrogen peroxide was added and absorbance was read at 405 nm on a Victor plate reader (Wallac).
Another assay that was used to test the effect of the compounds on the interaction of UL44 and UL54 is an ELISA interaction assay, which measures the interaction of the two full length proteins with each other. This assay was conducted as described in Loregian et al., J. Virol. 2003, 77:8336-8344, testing different concentrations (0, 3.12, 6.25, 12.5, 25, 50, 100, 200 μM) of each compound.

HFF cells = test: XTT cytotoxicity assay; assay type: cell-based, human
Experimental: (§2) Cytotoxicity assays. HFF cells were seeded at 2×10^4, 4×10^3, or 10^3 cells per well into 96-well plates and, after a 3-hr incubation to allow cell attachment, were treated for 24, 72, or 120 hr, respectively, with various concentrations of each compound in duplicate. Cell viability was then determined with an XTT assay (Roche Molecular Biochemicals) according to the manufacturer's protocol by using a Victor plate reader (Wallac).
(§3) The cytotoxicity of the compounds was measured in an XTT assay. XTT is a compound that is converted to a product that can be measured […], but only by viable cells. This assay is as follows. HFF (human foreskin fibroblasts) cells were seeded at different concentrations into 96-well plates and treated with various concentrations (from 0 to 200 μM) of each compound in duplicate for 24, 72 or 120 hr. Cell viability was then determined with an XTT assay (Roche Molecular Biochemicals) according to the manufacturer's protocol by using a Victor plate reader (Wallac).

HCMV strain AD169 = test: plaque reduction assay; assay type: cell-based, human cytomegalovirus; conditions: HFF cells; 0-30 μM
Experimental: Antiviral assays. Plaque reduction assays were performed essentially as follows: HFF (human foreskin fibroblast) cells were seeded at 2×10^5 cells per well in 24-well cluster dishes. The next day, cells were infected with HCMV (strain AD169) at 80 PFU per well in DMEM plus 5% fetal bovine serum (FBS) at 37° C. Two hours post-infection, the inocula were removed, cells were washed, and media containing various drug dilutions, 5% FBS, and 0.6% methylcellulose were added. All drug dilutions were tested at least in duplicate. After incubation at 37° C. for 10-11 days, cell monolayers were stained with crystal violet and plaques were counted under light microscopy.
The effect of the compounds was assessed in a plaque reduction assay that measures the number of plaques formed in the presence of varying concentrations of a drug, as follows. HFF were seeded at 2×10^5 cells per well in 24-well cluster dishes. The next day, they were infected with HCMV AD169 at 80 PFU per well in DMEM plus 5% FBS at 37° C. Two hr post-infection, the inocula were then removed, cells were washed, and media containing selected drug dilutions (0, 0.1, 0.3, 1, 3, 10, 30 μM), and 5% FBS and 0.6% methylcellulose were added. All drug dilutions were tested at least in duplicate. After incubation at 37° C. for 10-11 days, cell monolayers were stained with crystal violet and plaques were enumerated under light microscopy.

XTT cytotoxicity assay = assay type: cell-based, human; conditions: human
Experimental: as §2, §3

[2] = literature; cited from earlier work

Compound | inhibition of long-chain DNA synthesis by UL54 and UL44 (UL54 plus GST-UL44ΔC290) | effect on virus yield / HCMV replication (HCMV AD169) | inhibition of the UL54-UL44 physical interaction [1] | IC50s in plaque reduction assay (HCMV strain AD169) | other results
CCOc1cc(C2C(C#N)=C(N)Oc3n[nH]c(-c4ccc(OC)cc4)c32)cc([N+](=O)[O-])c1O (stereo not drawn) [AL2] | little or no inhibition | little or no effect |  |  | IC50 (UL54): 95 µM
Nc1ccc(N)c2c1C(=O)c1c(O)ccc(O)c1C2=O [AL18] | relatively low IC50s | relatively low IC50s; also recorded: submicromolar | potent | relatively low IC50s | CC50 (HFF cells; 120 hrs, HFF cells): 200 µM; cytotoxicity (HFF cells; HFF cells, 24, 72 or 120 hr): relatively high CC50's; inhibition of long-chain DNA synthesis by UL54 and UL44 at one concentration (UL54 plus GST-UL44ΔC290; 40 μM): severely decreased formation of long DNA products
CNC(=S)NN=Cc1ccc(OC)c(Br)c1 [AL20] | little or no inhibition | relatively low IC50s | did not significantly inhibit | relatively low IC50s | cytotoxic concentration relative to antiviral concentration (HFF cells): 7-500 fold; cytotoxicity (HFF cells): relatively high CC50's
Nc1nc(O)c2ncn(COC(CO)CO)c2n1 [GCV, ganciclovir, reference compound] |  |  |  |  | CC50 (XTT cytotoxicity assay): ~200 µM
Nc1ccn(C[C@@H](CO)OCP(=O)(O)O)c(=O)n1 [cidofovir] |  |  |  |  | cytotoxic activities reported [2]: 360 µM
